Reference: patent US20230093861A1, “RAPAMYCIN ANALOGS AS MTOR INHIBITORS” (Revolution Medicines, Inc., priority 2017, published 2023)
Like-named read-outs stand apart in the source and are kept apart here.

Legend:
P-4E-BP1 (T37/46) = assay: Cell based AlphaLISA assay, inhibition of P-4E-BP1 (T37/46) (mTORC1 substrate phosphorylation) in MDA-MB-468 cells; conditions: Homo sapiens, MDA-MB-468, 4 h, two to four hours at 37° C.
How it was run: (§1)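 Compound incubation stopped by buffer removal plus kit lysis buffer; lysates processed per kit protocol; Alpha signal read in duplicate. IC50: normalized regression fit, control-based normalization.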

P-P70S6K (T389) = assay: Cell based AlphaLISA assay, inhibition of P-P70S6K (T389) (mTORC1 substrate phosphorylation) in MDA-MB-468 cells; conditions: Homo sapiens, 4 h, two to four hours at 37° C.
How it was run: as §1

P-Akt (S473) = assay: Cell based AlphaLISA assay, inhibition of P-Akt (S473) (mTORC2 substrate phosphorylation) in MDA-MB-468 cells; conditions: Homo sapiens, MDA-MB-468, 4 h, two to four hours at 37° C.
How it was run: as §1

[1] = AlphaLISA, read-out: pIC50 for Inhibition of mTORC1 and mTORC2 Substrate Phosphorylation, P-4E-BP1-(T37/46) (converted)
[2] = AlphaLISA, read-out: pIC50 for Inhibition of mTORC1 and mTORC2 Substrate Phosphorylation, P-P70S6K-(T389) (converted)
[3] = AlphaLISA, read-out: pIC50 for Inhibition of mTORC1 and mTORC2 Substrate Phosphorylation, p-AKT 1/2/3 -(S473) (converted)

IC50 (P-4E-BP1 (T37/46); AlphaLisa SureFire Ultra, read-out: IC50 for Inhibition of mTORC1 and mTORC2 Substrate Phosphorylation, p-4E-BP1-(T37/46)) [nM]	IC50 (P-P70S6K (T389); AlphaLisa SureFire Ultra, read-out: IC50 for Inhibition of mTORC1 and mTORC2 Substrate Phosphorylation, p-P70S6K-(T389)) [nM]	IC50 (P-Akt (S473); AlphaLisa SureFire Ultra, read-out: IC50 for Inhibition of mTORC1 and mTORC2 Substrate Phosphorylation, p-AKT1/2/3-(S473)) [nM]	SMILES	IC50 (P-4E-BP1 (T37/46); [1]) [nM]	IC50 (P-P70S6K (T389); [2]) [nM]	IC50 (P-Akt (S473); [3]) [nM]
			CO[C@H]1C[C@@H]2CC[C@@H](C)[C@@](O)(O2)C(=O)C(=O)N2CCCC[C@H]2C(=O)O[C@H]([C@H](C)C[C@@H]2CC[C@H](n3cc(COC(=O)NCCOCCOCCOCCC(=O)NCc4cnc(N5CCN(c6ncc(C(=O)NCCCCn7nc(-c8ccc9oc(N)nc9c8)c8c(N)ncnc87)cn6)CC5)nc4)nn3)[C@H](OC)C2)CC(=O)[C@H](C)/C=C(\C)[C@@H](O)[C@@H](OC)C(=O)[C@H](C)C[C@H](C)/C=C/C=C/C=C/1C [Example 183]	< 3.16	< 1	3.16 to 31.6
			CO[C@H]1C[C@@H]2CC[C@@H](C)[C@@](O)(O2)C(=O)C(=O)N2CCCC[C@H]2C(=O)O[C@H]([C@H](C)C[C@@H]2CC[C@H](n3cc(COC(=O)NCCOCCOCCOCCC(=O)NCc4cnc(N5CCN(c6ncc(C(=O)NCCCCn7nc(-c8cc9cc(O)ccc9[nH]8)c8c(N)ncnc87)cn6)CC5)nc4)nn3)[C@H](OC)C2)CC(=O)[C@H](C)/C=C(\C)[C@@H](O)[C@@H](OC)C(=O)[C@H](C)C[C@H](C)/C=C/C=C/C=C/1C [Example 184]	< 3.16	< 1	3.16 to 31.6
			CO[C@H]1C[C@@H]2CC[C@@H](C)[C@@](O)(O2)C(=O)C(=O)N2CCCC[C@H]2C(=O)O[C@H]([C@H](C)C[C@@H]2CC[C@H](n3cc(COC(=O)NCCOCCOCCOCCOCCC(=O)NCc4cnc(N5CCN(c6ncc(C(=O)NCCCCn7nc(-c8ccc9oc(N)nc9c8)c8c(N)ncnc87)cn6)CC5)nc4)nn3)[C@H](OC)C2)CC(=O)[C@H](C)/C=C(\C)[C@@H](O)[C@@H](OC)C(=O)[C@H](C)C[C@H](C)/C=C/C=C/C=C/1C [Example 185]	< 3.16	< 1	3.16 to 31.6
			CO[C@H]1C[C@@H]2CC[C@@H](C)[C@@](O)(O2)C(=O)C(=O)N2CCCC[C@H]2C(=O)O[C@H]([C@H](C)C[C@@H]2CC[C@H](n3cc(COC(=O)NCCOCCOCCOCCOCCC(=O)NCc4cnc(N5CCN(c6ncc(C(=O)NCCCCn7nc(-c8cc9cc(O)ccc9[nH]8)c8c(N)ncnc87)cn6)CC5)nc4)nn3)[C@H](OC)C2)CC(=O)[C@H](C)/C=C(\C)[C@@H](O)[C@@H](OC)C(=O)[C@H](C)C[C@H](C)/C=C/C=C/C=C/1C [Example 186]	3.16 to 31.6	< 1	31.6 to 1000
			COc1cccc2cc(-c3nc([C@H]4CC[C@H](C(=O)NCCOCCOCCNC(=O)CCOCCOCCOCCOCCn5cc(CCCCO[C@@H]6CC[C@@H](C[C@@H](C)[C@@H]7CC(=O)[C@H](C)/C=C(\C)[C@@H](O)[C@@H](OC)C(=O)[C@H](C)C[C@H](C)/C=C/C=C/C=C(\C)[C@@H](OC)C[C@@H]8CC[C@@H](C)[C@@](O)(O8)C(=O)C(=O)N8CCCC[C@H]8C(=O)O7)C[C@H]6OC)nn5)CC4)n4ncnc(N)c34)[nH]c12 [Example 187]	< 3.16	< 1	3.16 to 31.6
			COc1cccc2cc(-c3nc([C@H]4CC[C@H](C(=O)NCCOCCOCCNC(=O)CCOCCOCCOCCOCCn5cc(CCCCO[C@@H]6CC[C@@H](C[C@@H](C)[C@@H]7C[C@@H](OC)[C@H](C)/C=C(\C)[C@@H](O)[C@@H](OC)C(=O)[C@H](C)C[C@H](C)/C=C/C=C/C=C(\C)[C@@H](OC)C[C@@H]8CC[C@@H](C)[C@@](O)(O8)C(=O)C(=O)N8CCCC[C@H]8C(=O)O7)C[C@H]6OC)nn5)CC4)n4ncnc(N)c34)[nH]c12 [Example 188]	< 3.16	< 1	31.6 to 1000
			COc1cccc2cc(-c3nc([C@H]4CC[C@H](C(=O)NCCOCCOCCOCCNC(=O)CCOCCOCCOCCOCCn5cc(CCCCO[C@@H]6CC[C@@H](C[C@@H](C)[C@@H]7CC(=O)[C@H](C)/C=C(\C)[C@@H](O)[C@@H](OC)C(=O)[C@H](C)C[C@H](C)/C=C/C=C/C=C(\C)[C@@H](OC)C[C@@H]8CC[C@@H](C)[C@@](O)(O8)C(=O)C(=O)N8CCCC[C@H]8C(=O)O7)C[C@H]6OC)nn5)CC4)n4ncnc(N)c34)[nH]c12 [Example 189]	< 3.16	< 1	3.16 to 31.6
			COc1cccc2cc(-c3nc([C@H]4CC[C@H](C(=O)NCCOCCOCCOCCNC(=O)CCOCCOCCOCCOCCn5cc(CCCCO[C@@H]6CC[C@@H](C[C@@H](C)[C@@H]7C[C@@H](OC)[C@H](C)/C=C(\C)[C@@H](O)[C@@H](OC)C(=O)[C@H](C)C[C@H](C)/C=C/C=C/C=C(\C)[C@@H](OC)C[C@@H]8CC[C@@H](C)[C@@](O)(O8)C(=O)C(=O)N8CCCC[C@H]8C(=O)O7)C[C@H]6OC)nn5)CC4)n4ncnc(N)c34)[nH]c12 [Example 190]	3.16 to 31.6	< 1	31.6 to 1000
			CO[C@H]1C[C@@H]2CC[C@@H](C)[C@@](O)(O2)C(=O)C(=O)N2CCCC[C@H]2C(=O)O[C@H]([C@H](C)C[C@@H]2CC[C@@H](O)[C@H](OC)C2)C[C@@H](O)[C@H](C)/C=C(\C)[C@@H](O)[C@@H](OC)C(=NOCc2cn(-c3cnc(N4CCN(c5ncc(C(=O)NCCOCCC(=O)NCCCCn6nc(-c7ccc8oc(N)nc8c7)c7c(N)ncnc76)cn5)CC4)nc3)nn2)[C@H](C)C[C@H](C)/C=C/C=C/C=C/1C [Example 191]	< 3.16	< 1	> 1000
			CO[C@H]1C[C@@H]2CC[C@@H](C)[C@@](O)(O2)C(=O)C(=O)N2CCCC[C@H]2C(=O)O[C@H]([C@H](C)C[C@@H]2CC[C@@H](O)[C@H](OC)C2)C[C@@H](O)[C@H](C)/C=C(\C)[C@@H](O)[C@@H](OC)C(=NOCc2cn(-c3cnc(N4CCN(c5ncc(C(=O)NCCOCCOCCC(=O)NCCCCn6nc(-c7ccc8oc(N)nc8c7)c7c(N)ncnc76)cn5)CC4)nc3)nn2)[C@H](C)C[C@H](C)/C=C/C=C/C=C/1C [Example 192]	3.16 to 31.6	< 1	> 1000
			CO[C@H]1C[C@@H]2CC[C@@H](C)[C@@](O)(O2)C(=O)C(=O)N2CCCC[C@H]2C(=O)O[C@H]([C@H](C)C[C@@H]2CC[C@@H](O)[C@H](OC)C2)C[C@@H](O)[C@H](C)/C=C(\C)[C@@H](O)[C@@H](OC)C(=NOCc2cn(-c3cnc(N4CCN(c5ncc(C(=O)NCCOCCOCCOCCC(=O)NCCCCn6nc(-c7ccc8oc(N)nc8c7)c7c(N)ncnc76)cn5)CC4)nc3)nn2)[C@H](C)C[C@H](C)/C=C/C=C/C=C/1C [Example 193]	3.16 to 31.6	< 1	> 1000
			CO[C@H]1C[C@@H]2CC[C@@H](C)[C@@](O)(O2)C(=O)C(=O)N2CCCC[C@H]2C(=O)O[C@H]([C@H](C)C[C@@H]2CC[C@@H](O)[C@H](OC)C2)C[C@@H](O)[C@H](C)/C=C(\C)[C@@H](O)[C@@H](OC)C(=NOCc2cn(-c3cnc(N4CCN(c5ncc(C(=O)NCCOCCC(=O)NCCCCn6nc(-c7ccc8oc(N)nc8c7)c7c(N)ncnc76)cn5)CC4CO)nc3)nn2)[C@H](C)C[C@H](C)/C=C/C=C/C=C/1C (stereo partly drawn) [Example 194]	> 1000	< 1	> 1000
			CO[C@H]1C[C@@H]2CC[C@@H](C)[C@@](O)(O2)C(=O)C(=O)N2CCCC[C@H]2C(=O)O[C@H]([C@H](C)C[C@@H]2CC[C@H](n3cc(COCCOCCOCCOCCOCCOCCOCCOCCOCCOCCC(=O)NCCCCn4nc(-c5cc6cc(O)ccc6[nH]5)c5c(N)ncnc54)nn3)[C@H](OC)C2)CC(=O)[C@H](C)/C=C(\C)[C@@H](O)[C@@H](OC)C(=O)[C@H](C)C[C@H](C)/C=C/C=C/C=C/1C [Example 196]	3.16 to 31.6	1 to 10	31.6 to 1000
			CO[C@H]1C[C@@H]2CC[C@@H](C)[C@@](O)(O2)C(=O)C(=O)N2CCCC[C@H]2C(=O)O[C@H]([C@H](C)C[C@@H]2CC[C@@H](OCCCCc3cn(CCOCCOCCOCCC(=O)NCCOCCOCCOCCC(=O)NCCCCn4nc(-c5ccc6oc(N)nc6c5)c5c(N)ncnc54)nn3)[C@H](OC)C2)CC(=O)[C@H](C)/C=C(\C)[C@@H](O)[C@@H](OC)C(=O)[C@H](C)C[C@H](C)/C=C/C=C/C=C/1C [Example 198]	< 3.16	< 1	3.16 to 31.6
			CO[C@H]1C[C@@H]2CC[C@@H](C)[C@@](O)(O2)C(=O)C(=O)N2CCCC[C@H]2C(=O)O[C@H]([C@H](C)C[C@@H]2CC[C@@H](OCCCCc3cn(CCOCCOCCOCCC(=O)NCCOCCOCCOCCC(=O)NCCCCn4nc(-c5cc6cc(O)ccc6[nH]5)c5c(N)ncnc54)nn3)[C@H](OC)C2)CC(=O)[C@H](C)/C=C(\C)[C@@H](O)[C@@H](OC)C(=O)[C@H](C)C[C@H](C)/C=C/C=C/C=C/1C [Example 199]	< 3.16	< 1	31.6 to 1000
16	1.4	3.7	CC(C)n1nc(-c2ccc3oc(N)nc3c2)c2c(N)ncnc21 [MLN-128, reference compound]			
